Results published in the supplement of paper PMC11208160.

assay: recombinant barcode read abundance after kanamycin selection (control-corrected) (log10(CPM+1)); higher = more efficient recombination; sequences stand for … in AGTGCAGAGAAAATCGGCCAGTTTTCTCTGCCTGCAGTCCGCATGCCGT…AGATTTATGCAGCGGACTGCCTTTCTCCCAAAGTGATAAACCGGACAGTATCATGGACCGGTTTTCCCGGTAATCCGTATTTGCAAGGTTGGTTTCACT; site = the 11-nt target
In short: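 Recombination efficiency comes from barcode counts at recombinant junctions, converted to counts per million, averaged and corrected against the control. Values appear as log10(CPM+1). They were obtained from a pooled E. coli screen in which each oligo paired a target with an IS621 bridge RNA target-binding loop, and cells were plated in duplicate on chloramphenicol/ampicillin LB agar or on chloramphenicol/ampicillin/kanamycin with 0.1 mM IPTG.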
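Also: IS621 recombinase and bridge RNA in Escherichia coli cells.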

Sequence	recombinant barcode read abundance (log10)
GCCATCACTTGGGTTCTAACCTGTTGCCT (site GCCATAACTAG)	0.00743
GCCATCACTTGGGTTCTAACCTGTTGCCT (site GCCATCACTAG)	0.112
GCCATCACTTGGGTTCTAACCTGTTGCCT (site GCCATGACTAG)	0.152
GCCATCACTTGGGTTCTAACCTGTTGCCT (site GCCATTACTAG)	0.12
GCCATCTCTTGGGTTCTAACCTGTTGCCT (site GCCATCTCTAG)	0.0476
GCCATCTCTTGGGTTCTAACCTGTTGCCT (site GCCGTCTCTAG)	0.0992
GCCATGTCTTGGGTTCTAACCTGTTGCCT (site GCCATGTCTAG)	0.502
GCCATGTCTTGGGTTCTAACCTGTTGCCT (site GTCATGTCTAG)	0.0158
GCCCATCCTTGGGTTCTAACCTGTTGCTA (site GCCCATCCTTA)	1.36
GCCCATCCTTGGGTTCTAACCTGTTGCTA (site TAGTGAGCTCG)	0.222
GCCCCATCTTGGGTTCTAACCTGTTGCCT (site GCCCAATCTAG)	0.00703
GCCCCATCTTGGGTTCTAACCTGTTGCCT (site GCCCCATCTAG)	0.601
GCCCCATCTTGGGTTCTAACCTGTTGCCT (site GCCCGATCTAG)	0.37
GCCCCATCTTGGGTTCTAACCTGTTGCCT (site GCCCTATCTAG)	0.384
GCCCCGCCTTGGGTTCTAACCTGTTGCAG (site GCCACGCCTCT)	0.319
GCCCCGCCTTGGGTTCTAACCTGTTGCAG (site GCCCCGCCTCT)	1.02
GCCCCGCCTTGGGTTCTAACCTGTTGCAG (site GCCGCGCCTCT)	0.00897
GCCCCGCCTTGGGTTCTAACCTGTTGCAG (site GCCTCGCCTCT)	0.0556
GCCCGGGCTTGGGTTCTAACCTGTTGCCG (site GCCAGGGCTCG)	0.144
GCCCGGGCTTGGGTTCTAACCTGTTGCCG (site GCCCGGGCTCG)	0.309
GCCCGGGCTTGGGTTCTAACCTGTTGCCG (site GCCGGGGCTCG)	0.0496
GCCCGGGCTTGGGTTCTAACCTGTTGCCG (site GCCTGGGCTCG)	0.0679

Sequence	recombinant barcode read abundance (log10)
GCCCGTGCTTGGGTTCTAACCTGTTGCCT (site GCACGTGCTAG)	0.377
GCCCGTGCTTGGGTTCTAACCTGTTGCCT (site GCCCGTGCTAG)	1.31
GCCCGTGCTTGGGTTCTAACCTGTTGCCT (site GCGCGTGCTAG)	0.177
GCCCGTGCTTGGGTTCTAACCTGTTGCCT (site GCTCGTGCTAG)	0.0122
GCCCTGCCTTGGGTTCTAACCTGTTGCCT (site GCACTGCCTAG)	0.705
GCCCTGCCTTGGGTTCTAACCTGTTGCCT (site GCCCTGCCTAG)	1.43
GCCCTTGCTTGGGTTCTAACCTGTTGCCT (site GAACTTGCTAG)	0.114
GCCCTTGCTTGGGTTCTAACCTGTTGCCT (site GCCCTTGCTAG)	1.79
GCCGACACTTGGGTTCTAACCTGTTGCCT (site GCCGAAACTAG)	0.0569
GCCGACACTTGGGTTCTAACCTGTTGCCT (site GCCGACACTAG)	0.13
GCCGACACTTGGGTTCTAACCTGTTGCCT (site GCCGAGACTAG)	0.284
GCCGACACTTGGGTTCTAACCTGTTGCCT (site GCCGATACTAG)	0.17
GCCGAGTCTTGGGTTCTAACCTGTTGCTC (site GCCGAGTCTAA)	0.191
GCCGAGTCTTGGGTTCTAACCTGTTGCTC (site GCCGAGTCTCA)	0.0833
GCCGAGTCTTGGGTTCTAACCTGTTGCTC (site GCCGAGTCTGA)	1.2
GCCGAGTCTTGGGTTCTAACCTGTTGCTC (site GCCGAGTCTTA)	0.371
GCCGATCCTTGGGTTCTAACCTGTTGCCT (site GACGATCCTAG)	0.332
GCCGATCCTTGGGTTCTAACCTGTTGCCT (site GCCGATCCTAG)	0.12
GCCGATCCTTGGGTTCTAACCTGTTGCCT (site GGCGATCCTAG)	0.205
GCCGATCCTTGGGTTCTAACCTGTTGCCT (site GTCGATCCTAG)	0.0291
GCCGCGCCTTGGGTTCTAACCTGTTGCAG (site GCCACGCCTCT)	0.0533
GCCGCGCCTTGGGTTCTAACCTGTTGCAG (site GCCCCGCCTCT)	0.271

Sequence	recombinant barcode read abundance (log10)
GCCGCGCCTTGGGTTCTAACCTGTTGCAG (site GCCGCGCCTCT)	0.116
GCCGCGCCTTGGGTTCTAACCTGTTGCAG (site GCCTCGCCTCT)	0.13
GCCGCTCCTTGGGTTCTAACCTGTTGCCT (site GCCGCTCCTAG)	0.163
GCCGCTCCTTGGGTTCTAACCTGTTGCCT (site GCGGTTCCTAG)	0.098
GCCTATGCTTGGGTTCTAACCTGTTGCCT (site GACTATGCTAG)	0.115
GCCTATGCTTGGGTTCTAACCTGTTGCCT (site GCCTATGCTAG)	0.852
GCCTATGCTTGGGTTCTAACCTGTTGCCT (site GGCTATGCTAG)	0.0448
GCCTATGCTTGGGTTCTAACCTGTTGCCT (site GTCTATGCTAG)	0.0718
GCCTCTTCTTGGGTTCTAACCTGTTGCCT (site GCCTCTTCTAG)	0.426
GCCTCTTCTTGGGTTCTAACCTGTTGCCT (site GTCTCTACTAG)	0.0556
GCCTGGTCTTGGGTTCTAACCTGTTGCCT (site GCCTGGTCTAG)	1.01
GCCTGGTCTTGGGTTCTAACCTGTTGCCT (site TCCTCGTCTAG)	0.122
GCGACGCCTTGGGTTCTAACCTGTTGCCT (site ACGAAGCCTAG)	0.0187
GCGACGCCTTGGGTTCTAACCTGTTGCCT (site GCGACGCCTAG)	1.26
GCGACTCCTTGGGTTCTAACCTGTTGCCT (site GCGACTCCTAA)	0.215
GCGACTCCTTGGGTTCTAACCTGTTGCCT (site GCGACTCCTAG)	0.699
GCGATCCCTTGGGTTCTAACCTGTTGCTT (site CATGAGACTCC)	0.0103
GCGATCCCTTGGGTTCTAACCTGTTGCTT (site GCGATCCCTAA)	0.798
GCGCACCCTTGGGTTCTAACCTGTTGCAG (site CTGCACCCTCT)	0.0518
GCGCACCCTTGGGTTCTAACCTGTTGCAG (site GCGCACCCTCT)	1.15
GCGCATGCTTGGGTTCTAACCTGTTGCCT (site GCGCATGCTAG)	0.788
GCGCATGCTTGGGTTCTAACCTGTTGCCT (site GTGCCTGCTAG)	0.41

Sequence	recombinant barcode read abundance (log10)
GCGCCCTCTTGGGTTCTAACCTGTTGCCT (site ACGCCCTCTAG)	0.0862
GCGCCCTCTTGGGTTCTAACCTGTTGCCT (site GCGCCCTCTAG)	0.7
GCGCGAACTTGGGTTCTAACCTGTTGCCT (site GCACGAACTAG)	0.733
GCGCGAACTTGGGTTCTAACCTGTTGCCT (site GCCCGAACTAG)	0.047
GCGCGAACTTGGGTTCTAACCTGTTGCCT (site GCGCGAACTAG)	0.608
GCGCGAACTTGGGTTCTAACCTGTTGCCT (site GCTCGAACTAG)	0.125
GCGGAATCTTGGGTTCTAACCTGTTGCCT (site GCGGAATCTAG)	1.28
GCGGAATCTTGGGTTCTAACCTGTTGCCT (site TCGGAATCTAG)	0.469
GCGGACGCTTGGGTTCTAACCTGTTGCCT (site CCGGACCCTAG)	0.0428
GCGGACGCTTGGGTTCTAACCTGTTGCCT (site GCGGACGCTAG)	1.72
GCGGGTCCTTGGGTTCTAACCTGTTGCGT (site GCGGGTCCTAC)	2.98
GCGGGTCCTTGGGTTCTAACCTGTTGCGT (site GCTGCTCCTAC)	0.0517
GCGGTTCCTTGGGTTCTAACCTGTTGCCT (site GCCGCTCCTAG)	0.139
GCGGTTCCTTGGGTTCTAACCTGTTGCCT (site GCGGTTCCTAG)	1.96
GCGTATCCTTGGGTTCTAACCTGTTGCCT (site GCGAATCCTAG)	0.127
GCGTATCCTTGGGTTCTAACCTGTTGCCT (site GCGCATCCTAG)	0.0623
GCGTATCCTTGGGTTCTAACCTGTTGCCT (site GCGGATCCTAG)	0.23
GCGTATCCTTGGGTTCTAACCTGTTGCCT (site GCGTATCCTAG)	0.93
GCGTCGTCTTGGGTTCTAACCTGTTGCCT (site GCATCGTCTAG)	0.134
GCGTCGTCTTGGGTTCTAACCTGTTGCCT (site GCCTCGTCTAG)	0.193
